# Data published in US20200024662A1, “METHODS FOR TREATING OPIOID ADDICTION” (ASSUREX HEALTH, INC., priority 2016, published 2020).
# Tests used:
# Format in all cases: in vivo, human
# [1] = tested on: patients treated with Methadone in the START trial; assay: PD Model 1 binning vs Methadone completion
# Method: (§1) For the model analyses, models were developed that sort patients into one of three categories, Green (‘G’) Yellow (‘Y’) or Red (‘R’). Patients determined to be high risk for non-completion by the model are placed into the Red Bin. Patients at intermediate risk of non-completion are placed in the Yellow Bin, and for this study, Yellow Bin patients are treated the same as patients found to be at Low Risk of non-completion, or those who are placed in the Green Bin. Thus, the Green and Yellow bins are combined for analysis.
# PD Model 1: The completion percentage was calculated for each genotype. For each gene and genotype completion percentage, the means and standard deviations were calculated. For each genotype that was greater than or equal to one standard deviation away from the mean, towards higher completion, a score of 1 was given. For each genotype that was greater than or equal to one standard deviation away from the mean, towards lower completion, a score of −1 was given. All others received a score of 0. The patient's PD risk was calculated by summing the total genotype risk score. The individual risk scores were combined to create the SumRisk variable; a final score of −1 was converted to Green, a score of 0 was converted to Yellow, and a score of 1 was converted to Red. […] A listing of tested alleles, and score assignments for PD Model 1 can be found in Table 16.
# (§2) Samples from patients treated with Methadone in the START trial described in Example 1 above were used (N=352). […] Each model was tested as described below against Sample 1, Sample 2 and/or the Full Sample.
# (§3) Pearson's product moment, Chi-square with Yates correction were calculated. Diagnostic tests, odds ratios, Pearson's product moment, Chi-square with Yates correction were calculated using MEDCALC and R version 3.3.1.
# [2] = tested on: patients treated with Methadone in the START trial; assay: PD Model 2 binning vs Methadone completion
# Method: as §1
# PD Model 2: The completion percentage was calculated for each genotype. For each gene and genotype completion percentage, the means and standard deviations were calculated. For each genotype that was one standard deviation away from the mean, towards higher completion, a score of 1 was given. For each genotype that was one standard deviation away from the mean, towards lower completion, a score of −1 was given. For genotypes that were not one standard deviation away, the raw percent difference from the mean was observed as the score. Each score was then normalized across each gene using a scale from 0.2 to 1. Each value was normalized across all genes by converting the percentages on a plus/minus scale of 0, 0.2, 0.5, and 1 according to Table 17. Values that were greater than or equal to 1 SD away were automatically scored as a 1 or −1. The conversion of genotypes to scores was as shown in Tabl 18. The patient's PD risk was calculated by summing the total genotype risk score. Bins were assigned over the range of scores that maximized completers in Green and Yellow bins and non-completers in the Red bin.
# as §2, §3
# [3] = tested on: patients treated with Methadone in the START trial; assay: PD Model 3 binning vs Methadone completion
# Method: as §1
# PD Model 3: The completion percentage was calculated for each genotype. For each genotype, the raw percent difference of completion compared to the mean of completion was assigned as the genotype's PD score. The patient's PD risk was calculated by summing the total genotype risk score. Bins were assigned over the range of scores that maximized completers in Green and Yellow bins and non-completers in the Red bin.
# as §2, §3
# [4] = PD Model 1, Full Sample, COMT Low Risk, SLC6A4 High Risk (Yellow)
# [5] = PD Model 1, Full Sample, COMT Low Risk, SLC6A4 Normal Risk (Green)
# [6] = PD Model 1, Full Sample, COMT Normal Risk, SLC6A4 High Risk (Red)
# [7] = PD Model 1, Full Sample, COMT Normal Risk, SLC6A4 Normal Risk (Yellow)
# [8] = PD Model 1, Full Sample, Green bin
# [9] = PD Model 1, Full Sample, Red bin
# [10] = PD Model 1, Full Sample, Yellow bin
# [11] = PD Model 1, Sample 1, COMT Low Risk, SLC6A4 High Risk (Yellow)
# [12] = PD Model 1, Sample 1, COMT Low Risk, SLC6A4 Normal Risk (Green)
# [13] = PD Model 1, Sample 1, COMT Normal Risk, SLC6A4 High Risk (Red)
# [14] = PD Model 1, Sample 1, COMT Normal Risk, SLC6A4 Normal Risk (Yellow)
# [15] = PD Model 1, Sample 1, Green bin
# [16] = PD Model 1, Sample 1, Yellow bin
# [17] = PD Model 1, Sample 2, COMT Low Risk, SLC6A4 High Risk (Yellow)
# [18] = PD Model 1, Sample 2, COMT Low Risk, SLC6A4 Normal Risk (Green)
# [19] = PD Model 1, Sample 2, COMT Normal Risk, SLC6A4 High Risk (Red)
# [20] = PD Model 1, Sample 2, COMT Normal Risk, SLC6A4 Normal Risk (Yellow)
# [21] = PD Model 1, Sample 2, Green bin
# [22] = PD Model 1, Sample 2, Yellow bin
# [23] = PD Model 2, Full Sample, Green bin, Risk Score −4.2 to −0.2
# [24] = PD Model 2, Full Sample, Red bin, Risk Score 1.3+
# [25] = PD Model 2, Full Sample, Yellow bin, Risk Score 0.1 to 1
# [26] = PD Model 2, Sample 1, Green bin, Risk Score −3.3 to −0.2
# [27] = PD Model 2, Sample 1, Red bin, Risk Score 1.3 to 3.7
# [28] = PD Model 2, Sample 1, Yellow bin, Risk Score 0.2 to 1
# [29] = PD Model 2, Sample 2, Green bin, Risk Score −3.2 to −1
# [30] = PD Model 2, Sample 2, Red bin, Risk Score 0.5 to 2.7
# [31] = PD Model 2, Sample 2, Yellow bin, Risk Score −0.9 to 0.3
# [32] = PD Model 3, Full Sample, Green bin, Risk Score −2.3 to −0.3
# [33] = PD Model 3, Full Sample, Red bin, Risk Score 1+
# [34] = PD Model 3, Full Sample, Yellow bin, Risk Score −0.2 to 0.9
# [35] = PD Model 3, Sample 1, Green bin, Risk Score −1.8 to −0.3
# [36] = PD Model 3, Sample 1, Red bin, Risk Score 1 to 2.1
# [37] = PD Model 3, Sample 1, Yellow bin, Risk Score −0.2 to 0.9
# [38] = PD Model 3, Sample 2, Green bin, Risk Score −2.1 to −0.7
# [39] = PD Model 3, Sample 2, Red bin, Risk Score 0.2 to 2
# [40] = PD Model 3, Sample 2, Yellow bin, Risk Score −0.6 to 0.1
compound,measurement,setting,value
"CCC(=O)C(CC(C)N(C)C)(c1ccccc1)c1ccccc1 (stereo not drawn) [Methadone, methadone]",Completers,[1]; [4],13
same,Non Completers,[1]; [4],1
same,Completers,[1]; [5],62
same,Non Completers,[1]; [5],4
same,Completers,[1]; [6],39
same,Non Completers,[1]; [6],13
same,Completers,[1]; [7],193
same,Non Completers,[1]; [7],27
same,Completers,[1]; [8],62
same,Non Completers,[1]; [8],4
same,Odds Ratio for non-completion,"[1]; PD Model 1, Full Sample, LR/HR vs. NR/NR",0.5499
same,Odds Ratio for non-completion,"[1]; PD Model 1, Full Sample, LR/NR vs. NR/HR",0.1935
same,Odds Ratio for non-completion,"[1]; PD Model 1, Full Sample, LR/NR vs. NR/NR",0.4612
same,Odds Ratio for non-completion,"[1]; PD Model 1, Full Sample, NR/HR vs. NR/NR",2.3827
same,Completers,[1]; [9],39
same,Non Completers,[1]; [9],13
same,Completers,[1]; [10],206
same,Non Completers,[1]; [10],28
same,Completers,[1]; [11],8
same,Non Completers,[1]; [11],0
same,Completers,[1]; [12],34
same,Non Completers,[1]; [12],1
same,Completers,[1]; [13],20
same,Non Completers,[1]; [13],7
same,Completers,[1]; [14],94
same,Non Completers,[1]; [14],12
same,Completers,[1]; [15],34
same,Non Completers,[1]; [15],1
same,Odds Ratio for non-completion,"[1]; PD Model 1, Sample 1, LR/HR vs. NR/NR",0.4447
same,Odds Ratio for non-completion,"[1]; PD Model 1, Sample 1, LR/NR vs. NR/HR",0.0840
same,Odds Ratio for non-completion,"[1]; PD Model 1, Sample 1, LR/NR vs. NR/NR",0.2304
same,Odds Ratio for non-completion,"[1]; PD Model 1, Sample 1, NR/HR vs. NR/NR",2.7417
same,Completers,"[1]; PD Model 1, Sample 1, Red bin",20
same,Non Completers,"[1]; PD Model 1, Sample 1, Red bin",7
same,Completers,[1]; [16],102
same,Non Completers,[1]; [16],12
same,Completers,[1]; [17],7
same,Non Completers,[1]; [17],0
same,Completers,[1]; [18],39
same,Non Completers,[1]; [18],2
same,Completers,[1]; [19],21
same,Non Completers,[1]; [19],6
same,Completers,[1]; [20],92
same,Non Completers,[1]; [20],9
same,Completers,[1]; [21],39
same,Non Completers,[1]; [21],2
same,Odds Ratio for non-completion,"[1]; PD Model 1, Sample 2, LR/HR vs. NR/NR",0.6491
same,Odds Ratio for non-completion,"[1]; PD Model 1, Sample 2, LR/NR vs. NR/HR",0.1795
same,Odds Ratio for non-completion,"[1]; PD Model 1, Sample 2, LR/NR vs. NR/NR",0.5242
same,Odds Ratio for non-completion,"[1]; PD Model 1, Sample 2, NR/HR vs. NR/NR",2.9206
same,Completers,"[1]; PD Model 1, Sample 2, Red bin",21
same,Non Completers,"[1]; PD Model 1, Sample 2, Red bin",6
same,Completers,[1]; [22],99
same,Non Completers,[1]; [22],9
same,Completers,[2]; [23],101
same,Non Completers,[2]; [23],7
same,Completers,[2]; [24],86
same,Non Completers,[2]; [24],20
same,Completers,[2]; [25],120
same,Non Completers,[2]; [25],18
same,Completers,[2]; [26],58
same,Non Completers,[2]; [26],3
same,Completers,[2]; [27],43
same,Non Completers,[2]; [27],12
same,Completers,[2]; [28],55
same,Non Completers,[2]; [28],5
same,Completers,[2]; [29],70
same,Non Completers,[2]; [29],2
same,Completers,[2]; [30],32
same,Non Completers,[2]; [30],9
same,Completers,[2]; [31],57
same,Non Completers,[2]; [31],6
same,Completers,[3]; [32],137
same,Non Completers,[3]; [32],9
same,Completers,[3]; [33],39
same,Non Completers,[3]; [33],10
same,Completers,[3]; [34],131
same,Non Completers,[3]; [34],26
same,Completers,[3]; [35],74
same,Non Completers,[3]; [35],2
same,Completers,[3]; [36],20
same,Non Completers,[3]; [36],7
same,Completers,[3]; [37],62
same,Non Completers,[3]; [37],11
same,Completers,[3]; [38],77
same,Non Completers,[3]; [38],2
same,Completers,[3]; [39],29
same,Non Completers,[3]; [39],9
same,Completers,[3]; [40],53
same,Non Completers,[3]; [40],6
